The data set is described as follows: Oral absorbability of cefditoren pivoxil suspensions in dogs. The data set is classed as in vivo. The settings on record: suspension of crystals as compared to an amorphous suspension. The text has this:
On the other hand, since amorphous cefditoren pivoxil is apt to change into a crystalline state in a solution, an antibiotic pharmaceutical composition comprising amorphous cefditoren pivoxil still needs to be improved.

We go through one compound from US8648065B2, “Antibacterial medicinal composition of enhanced oral absorptivity” (Meiji Seika Pharma Co., Ltd., priority 2002, dated 2014).

In the case of `CO/N=C(\C(=O)N[C@@H]1C(=O)N2C(C(=O)OCOC(=O)C(C)(C)C)=C(/C=C\c3scnc3C)CS[C@H]12)c1csc(N)n1` [cefditoren pivoxil, (−)-(6R,7R)-7-[(Z)-2-(2-aminothiazol-4-yl)-2-methoxyiminoacetamido]-3-[(Z)-2-(4-methylthiazol-5-yl)ethenyl]-8-oxo-5-thia-1-azabicyclo[4.2.0]oct-2-ene-2-carboxylic acid 2,2-dimethylpropionyloxymethyl ester], the “Oral absorbability in dogs (in words)” value is reported as “extremely low oral absorbability”.
